Measured values taken from ChEMBL document CHEMBL1139524, “Decoys for docking” (J Med Chem, 2005).

Tests used:
[1] = molecular target: Endolysin (Enterobacteria phage T4, UniProt P00720, L99A/M102Q); assay: Dissociation constant against T4 lysozyme mutant L99A/M102Q; set-up: species or system Tequatrovirus T4
[2] = molecular target: Endolysin (Enterobacteria phage T4, UniProt P00720, L99A); set-up: species or system Tequatrovirus T4
[3] = molecular target: T1, Beta-lactamase (Escherichia coli K-12, UniProt P00811); assay: Apparent inhibitory constant against beta-lactamase AmpC from Escherichia coli
[4] = molecular target: T1, Beta-lactamase; assay: Inhibitory constant against beta-lactamase AmpC from Escherichia coli

T1 sequence (P00811 whole entry): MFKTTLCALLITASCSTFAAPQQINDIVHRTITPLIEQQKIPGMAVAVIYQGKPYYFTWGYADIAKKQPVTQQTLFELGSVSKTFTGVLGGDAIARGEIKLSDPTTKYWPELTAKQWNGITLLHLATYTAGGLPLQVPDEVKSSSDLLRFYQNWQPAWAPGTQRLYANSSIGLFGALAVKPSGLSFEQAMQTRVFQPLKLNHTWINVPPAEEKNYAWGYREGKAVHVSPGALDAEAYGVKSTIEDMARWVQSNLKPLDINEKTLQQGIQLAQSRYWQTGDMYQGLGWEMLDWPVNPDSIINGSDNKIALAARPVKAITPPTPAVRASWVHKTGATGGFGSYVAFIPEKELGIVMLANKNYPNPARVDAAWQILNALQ

| Structure (SMILES) | Kd [2] [µM] | other results |
| --- | --- | --- |
| Nc1ccccc1F |  | Kd [1]: 100 µM |
| CCc1ccc(C)cc1 | 120 |  |
| CCCc1ccccc1 | 18 |  |
| CCc1cccc(C)c1 | 198 |  |
| CCc1ccccc1C | 505 |  |
| NS(=O)(=O)c1ccc(NS(=O)(=O)c2ccsc2C(=O)O)cc1 |  | Ki [3]: 93 µM |
| O=C(O)c1sccc1S(=O)(=O)Nc1ccc(Cl)cc1 |  | Ki [4]: 26 µM |
| Oc1cccc(Cl)c1 |  | Kd [1]: 56 µM |
| Cc1cc[nH]c1 |  | Kd [1]: 159 µM |
| c1ccc2occc2c1 [BENZOFURAN] | 112 |  |
| c1ccc2sccc2c1 [BENZOTHIOPHENE] | 74 |  |
| C1=Cc2ccccc2C1 [INDENE] | 193 |  |
| Cc1cccc(C)c1 [M-XYLENE] | 364 |  |
